Patent publication US20250299826A1, “OPTIMAL TUMOR MICROENVIRONMENT NORMALIZATION THERAPY” (University of Connecticut, priority 2022, published 2025)

System: orthotopic 4T1 breast cancer
Experiment: Tumor transport model simulation: IFP/IFV, solute concentration and transvascular convective/diffusive flux profiles
Settings: DEX treatment

`C[C@@H]1C[C@H]2[C@@H]3CCC4=CC(=O)C=C[C@]4(C)[C@@]3(F)[C@@H](O)C[C@]2(C)[C@@]1(O)C(=O)CO` [DEX, dexamethasone] was tested. Which “increase in volume fraction of tumor dominated by convective transport vs control” value did it give?
The value was 61%.
